Data reported in patent US20230102192A1, “THERAPIES FOR THE TREATMENT OF DISEASES AND DISORDERS ASSOCIATED WITH ABNORMAL EXPRESSION OF A NEURAL-ASSOCIATED GENE” (The Regents of the University of California, priority 2020, published 2023).
Entries after “also recorded” stand apart in the source; their conditions may differ. Read-outs that look alike come from different tables or passages of the source.

Experiments:
GABAA receptor = conditions: read-out: affinity for the GABAA receptor (IC50); cited from earlier work
[1] = cited from earlier work
MECP2-KO neurons [2] = test: Neuronal morphology (neurites, spine density); assay type: cell-based, human; conditions: vs KO untreated
MECP2-KO neurons [3] = test: Neuronal morphology (neurites, spine density); assay type: cell-based, human; conditions: vs KO untreated; remark: listed apart in the source
Protocol: Spine density and morphology/stability/motility. pHIV7/Syn-EGFP lentivirus was prepared by transfecting HEK cells using the transfection agent polyethyleneimine (Polysciences, Inc., Warrington, Pa., USA), pSyn-EGFP and packaging plasmids pMDL, Rev RSV and VSVG. During cortical neuron differentiation, on day 40, control and MECP2dup neurons were transduced with pHIV7/syn-EGFP. Post transduction, neurons were further differentiated until day 70 and were fixed with 4% PFA and further processed for imaging. Confocal images were obtained using a confocal laser-scanning microscope (Nikon), 60× oil objective, with a sequential acquisition setting at 4096×4096 pixels resolution. Each image is a Z-series projection of ˜7 to 15 images, averaged 2 times and taken at 0.5 μm depth intervals. GFP-labeled differentiated neurons were chosen randomly for quantification. Quantitative analysis was performed in a blinded manner. Dendrites on primary branches were selected randomly and for each neuron two to three segments of 10 μm were analyzed. Morphometric measurements were performed manually using the ImageJ software (1.44p version). Each spine on the dendrites was manually traced. The length and head width of each spine was automatically measured and used to categorize the spines. Specifically, spines where defined as thin and filopodia (immature) or mushroom and stubby (mature) according to the criteria defined previously. Twenty-two (51 segments of 10 μm) and 18 (42 segments of 10 μm) neurons were analyzed for the control and MECP2dup neurons, respectively; two clones for each condition.
Analysis of neuronal morphology. PSC-derived neuronal morphometry was performed as described in Chailangkarn et al. Briefly, neurons with branching neurites featuring dendritic spine-like protrusions were selected, and neuronal morphology was quantified using Neurolucida v9 (MBF Bioscience, Williston, Vt.) via Nikon Eclipse E600 microscope (40× oil). Measurements were as follows: Spine number: number of spines protruding from neurites; soma size: soma area on cross-section; spine length: summed length of all spines per neuron. The rater traced the same neuron after a period of time to ensure intra-rater reliability.

[4] = tested on: MECP2-mosaic (CTR/KO) neurospheres; test: Nuclei size in neurospheres; assay type: cell-based, human; conditions: vs CTR/KO untreated
[5] = tested on: MECP2-KO cortical organoids; test: RNA sequencing and gene ontology analysis of cortical organoids; assay type: cell-based, human; conditions: 1 μM for one month, two-month old organoids
Protocol: RNA-seq analyses. RNA-seq analyses were performed as described in Marchetto et al. (Nature 504:525-529 (2013)). Briefly, RNeasy Mini kit (Qiagen) isolated RNA for library preparation (Illumina TruSeq RNA Sample Preparation Kit; San Diego, Calif., USA) and sequencing (Illumina HiSeq2000, 50 bp paired-end reads, 50 million high-quality sequencing fragments per sample on average).
Gene ontology (GO) analysis. RNA-seq enrichment was with plugins WebGestalt and Cytoscape and considered only statistically significant categories (P<0.05). Genes evaluated for differential expression set the background for GO annotation and enrichment analysis.
Nefiracetam and PHA 543613 rescue network activity in MECP2-KO cortical organoids. The therapeutic efficacy of Nefiracetam and PHA 543613 was evaluated with cortical organoids, a complex, three-dimensional human neurodevelopmental model that closely recapitulates aspects of human fetal neurodevelopment. MECP2-KO and control cortical organoids were generated, as described above (see FIG. 9A, and FIG. 10A-B). One-month old cortical organoids were treated for another month with either Nefiracetam (1 μM) or PHA 543613 (1 μM), and experiments and analyses were performed using organoids at 2-3 months of age. […]

MECP2-KO neurons [6] = test: Nuclei size in neurons; assay type: cell-based, human; conditions: vs KO untreated
MECP2-KO neurons [7] = test: Calcium imaging of neurons; assay type: cell-based, human; conditions: vs untreated KO
Protocol: Pharmacologic treatment. One-month old cortical organoids were treated for 1 mo with either Nefiracetam (10 μM) or PHA 543613 (10 μM) during media changes.
Calcium imaging. Calcium imaging was performed as described in Chailangkarn et al. Briefly, PSC-derived neuronal networks were lentivirally transduced with a Syn::RFP reporter construct. Cultures were washed with Krebs HEPES buffer and incubated with Fluo-4AM (Molecular Probes/Invitrogen, Carlsbad, Calif., USA). A Hamamatsu ORCA-ER digital camera (Hamamatsu Photonics, Japan) with 488 nm filter on an Olympus IX81 inverted fluorescence confocal microscope (Olympus Optical, Tokyo, Japan) acquired 5000 frames at 28 Hz in a 256×256 pixel region (100× magnification). Images were acquired with MetaMorph7.7 (MDS Analytical Technologies, Sunnyvale, Calif., USA) and analyzed with ImageJ and Matlab7.2 (Mathworks, Natick, Mass., USA). Syn::RFP+ neurons were selected following tetrodotoxin blockade of calcium transients. A 95th-percentile threshold of amplitude for calcium spikes was set for event detection; signal amplitude is presented as fluorescence change (ΔF/F) following background subtraction.

[8] = tested on: MECP2-KO cortical organoids; test: Nuclei size in cortical organoids; assay type: cell-based, human; conditions: vs KO untreated
[9] = in vivo, cited from earlier work
[10] = molecular target: α7 subtype of neural nicotinic acetylcholine receptors (Homo sapiens, UniProt P36544); conditions: cited from earlier work
Chain of α7 subtype of neural nicotinic acetylcholine receptors (P36544 23-502): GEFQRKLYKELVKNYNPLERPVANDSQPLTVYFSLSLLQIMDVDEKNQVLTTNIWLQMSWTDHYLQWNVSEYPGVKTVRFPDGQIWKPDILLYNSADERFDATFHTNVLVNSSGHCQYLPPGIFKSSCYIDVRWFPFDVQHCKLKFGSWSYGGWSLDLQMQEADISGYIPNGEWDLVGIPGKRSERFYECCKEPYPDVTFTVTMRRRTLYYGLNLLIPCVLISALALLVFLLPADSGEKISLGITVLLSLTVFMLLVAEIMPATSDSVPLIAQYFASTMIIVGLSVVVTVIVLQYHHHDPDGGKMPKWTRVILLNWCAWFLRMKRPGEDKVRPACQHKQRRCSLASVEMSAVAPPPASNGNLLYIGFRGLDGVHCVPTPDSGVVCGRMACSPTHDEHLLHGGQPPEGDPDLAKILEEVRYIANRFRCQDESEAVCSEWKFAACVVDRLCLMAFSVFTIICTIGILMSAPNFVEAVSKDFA

Cc1cccc(C)c1NC(=O)CN1CCCC1=O [Nefiracetam, nefiracetam]
IC50 (GABAA receptor): 8.5 nM | toxicity during clinical trials ([1]; clinical trials): no evidence of toxicity | toxicity on long-term consumption ([1]; humans and primates): no toxicity | spine density / neuronal spine-like protrusions (MECP2-KO neurons [2]): rescued or partially rescued | number of neurites (MECP2-KO neurons [3]): did not increase; also recorded: did not rescue | total neurite length (MECP2-KO neurons [3]): did not increase; also recorded: did not rescue | nuclei size in neurospheres [4]: did not rescue | expression of genes in pathways relevant to synaptic function [5]: promoted expression; also recorded: upregulated genetic expression | nuclei size in neurons (MECP2-KO neurons [6]): did not rescue | frequency of calcium oscillations (MECP2-KO neurons [7]): increases; also recorded: significantly increase | percentage of active neurons (MECP2-KO neurons [7]): increase | nuclei size in cortical organoids [8]: did not rescue

O=C(N[C@H]1CN2CCC1CC2)c1cc2ccoc2cn1 [PHA 543613, N-[(3R)-1-azabicyclo[2.2.2]oct-3-yl]furo[2,3-c]pyridine-5-carboxamide]
brain penetration [9]: rapid brain penetration | oral bioavailability [9]: high oral bioavailability | brain penetration ([9]; listed as PHA-543613): high level of brain penetration | oral bioavailability ([9]; listed as PHA-543613): good oral bioavailability | agonist activity at α7 nAChR [10]: potent and selective agonist | spine density / neuronal spine-like protrusions (MECP2-KO neurons [2]): rescued or partially rescued | number of neurites (MECP2-KO neurons [3]): did not increase; also recorded: did not rescue | total neurite length (MECP2-KO neurons [3]): did not increase; also recorded: did not rescue | nuclei size in neurospheres [4]: did not rescue | expression of genes in pathways relevant to synaptic function [5]: promoted expression; also recorded: upregulated expression | nuclei size in neurons (MECP2-KO neurons [6]): did not rescue | frequency of calcium oscillations (MECP2-KO neurons [7]): increases; also recorded: significantly increase | percentage of active neurons (MECP2-KO neurons [7]): increase | nuclei size in cortical organoids [8]: did not rescue
